Assay results from patent US20100209934A1, “METHOD OF IDENTIFYING AGENTS WHICH MODULATE THE ACTIVITY OF CALCIUM-ACTIVATED CHLORIDE CHANNEL” (SNU R&DB FOUNDATION, priority 2007, published 2010).
Read-outs that look alike come from different tables or passages of the source.

Assays:
mANO1 [1] = test: FLIPR membrane potential (voltage-sensing fluorescence) assay in mANO1-stably expressing HEK cells; format: cell-based, mouse; conditions: for membrane potential change detected by fluorescent intensity: 100 μM ATP or 10 μM A23187, mANO1-stably expressing HEK cells, not seen in control HEK cells
Experimental: The activity of the ANO1-stable cell line was characterized with a FLIPR® Membrane Potential assay kit (Molecular devices, Sunnyvale, Calif.) according to the manufacture's instructions. ANO1-stable cell lines were seeded into poly-D-lysine coated 96-well plates (50,000 cells/each well). One day after the plating, the cells were incubated with 50 μl Hank's balanced salt solution (HBSS) containing membrane potential dye for 40 min at 37° C. To test the activity of ANO1 stable cell line, 100·μM ATP or 10·μM A23187 (Sigma, St Louis, Mo., USA) was added to each well for 20 sec after starting detection. The fluorescence intensity was measured by a fluorometric imaging plate reader (FlexStation™ II, MolecularDevices). Membrane potential dye was excited at 530 nm, and the intensity of fluorescence emitted at 565 nm was measured.
To determine if ANO1 is applicable for high-throughput screening (HTS) analysis, we constructed a stable cell line that constitutively expresses mANO1 (Reference example 7). The mANO1 stable cell line was grown in wells of a 96-well plate. mANO1-stably expressing HEK cells were incubated with a voltage sensor fluorescent dye (FLIPR®-membrane potential assay kit, Molecular Device) to detect change in membrane potential when ANO1 is activated. When ANO1 is activated, Cl^− would flux out the cell to depolarize the membrane, which makes the fluorescence dye fluoresce. After wash out the fluorescent dye, 100 μM ATP was applied. […] Fluorescent intensity was detected at excitation 530 nm and emission 565 nm by FlexStation 2 (Molecular device). […] F/F0: ratio of fluorescence intensity. Pretreatment of 2APB, a known blocker of IP3 receptor, blocked the ATP induced-membrane potential change in ANO1-stably expressing HEK cells (FIG. 13C).

mANO1 [2] = test: Whole-cell current response to GPCR stimulation in HEK 293T cells co-transfected with mANO1 and a GPCR; format: cell-based, mouse
Experimental: HEK 293T cells were transfected with pEGFP-N1 (control) (1.0 μg) or pEGFP-N-1-mANO1 (0.8˜1.0 μg) and/or any one of the GPCR cDNAs (1.0 μg) obtained in Reference Example 2, using a FuGENE® HD transfection reagent (Roche Diagnostics, Penzberg, Germany). Transfected cells were maintained in DMEM supplemented with heat inactivated 10% fetal bovine serum (GIBCO BRL, Rockville, Md.) and penicillin-streptomycin at 37 in a 5% CO2 humidified atmosphere. One or two days after transfection, transfected cells were used for biochemical and electrophysiological experiments.
(§1) To form gigaseals, individual cell surfaces were touched with a ˜3 Mohm Sylgard-coated glass pipette with gentle suction, and the junction potential was then adjusted to 0 mV. The membrane in contact with the pipette was then ruptured by suction to form a whole cell. The pipette solution contained 140 mM NMDG-Cl, 2 mM MgCl2, 10 mM HEPES, 2 mM ATP, and 0.3 mM GTP adjusted to pH 7.2, and the bath solution contained 140 mM NMDG-Cl, 2 mM MgCl2 and 10 mM HEPES (pH 7.2). For ion selectivity experiments, 140 mM NMDG-Cl was replaced with equimolar NaCl, NaL NaBr, NaNO3, NaF, or Na-gluconate in the bath solution. To determine current-voltage relationships, voltage ramps from −80 or −100 mV to +80 or +100 mV were delivered for 350 ms, or voltage-pulses from −100 mV to +100 mV were delivered for 400 ms to whole cells. When mANO1 was activated by 300 nM intracellular Ca^2+, voltage-pulses of 2500 ms were delivered. Whole-cell currents were amplified using an Axopatch 200B amplifier (Molecular Device, Sunnyvale, Calif.) and stored in a personal computer after digitization by a Digidata 1440 (Molecular Device). For single-channel current recordings, cell-attached or inside-out patches were formed from gigaseals. The pipette and control bath solution contained 140 mM NMDG-Cl, 2 mM MgCl2 and 10 mM HEPES (pH 7.2). […] To create amplitude histograms, pClamp software (version 6.0, Molecular Device) was used to analyze open and closed single-channel current events. The half-amplitude algorithm was used to determine an open event. The minimum duration of an open event was set at 0.1 ms.
Under physiological conditions CaCCs are known to be activated by GPCR stimulation. Endothelin-1 is a powerful vasoconstrictor that depolarizes vascular smooth muscle by activating CaCCs (Klockner, U. & Isenberg, G., Pflugers Arch. 418, 168-75 (1991); and Salter, K. J. & Kozlowski, R. Z., J Pharmacol Exp Ther. 279, 1053-62 (1996)). Thus, mANO1 and endothelin receptor subtype A (ETAR) were transfected into HEK 293T cells, along with GFP for visual identification of transfected cells, in accordance with the method of Reference Example 5. Whole cells were used to test the current response of mANO1 to ETAR stimulation. Pipette and bath solutions contained 140 mM N-methyl D-glucamine (NMDG)-Cl, which permitted Cl^− to be used as the main charge carrier. The pipette solution was Ca^2+ free and contained no EGTA. […] In contrast, endothelin-1 evoked currents were minimal in HEK cells transfected with ETAR or control (GFP-transfected only) cells. When mANO1 was transfected alone, 50 nM endothelin-1 evoked appreciable currents; presumably because of the presence of endogenous endothelin receptors in HEK cells.

hANO1 = test: Current recording in hANO1/ETAR-HEK cells; format: cell-based, human; conditions: 50 nM endothelin-1
Excerpt: The hANO1 (human TMEM16A; NM_018043, GI: 40354209) was cloned from human trachea total RNAs (Clontech, Palo Alto, Calif.) by PCR method using following primers; forward primer 5′-CTCGAGGCCACCATGAGGGTCAACGAGAAGTACTC-3′ (SEQ ID NO: 8) and reverse primer 5′-GGTACCCTACAGGACGCCCCCGTGGTAG-3′ (SEQ ID NO: 9). The PCR product was cut with XhoI and KpnI, and then inserted into XhoI/KpnI site of pSDTF or pEGFP-N1.
To form gigaseals, individual cell surfaces were touched with a ˜3 Mohm Sylgard-coated glass pipette with gentle suction, and the junction potential was then adjusted to 0 mV. The membrane in contact with the pipette was then ruptured by suction to form a whole cell. The pipette solution contained 140 mM NMDG-Cl, 2 mM MgCl2, 10 mM HEPES, 2 mM ATP, and 0.3 mM GTP adjusted to pH 7.2, and the bath solution contained 140 mM NMDG-Cl, 2 mM MgCl2 and 10 mM HEPES (pH 7.2). For ion selectivity experiments, 140 mM NMDG-Cl was replaced with equimolar NaCl, NaL NaBr, NaNO3, NaF, or Na-gluconate in the bath solution. To determine current-voltage relationships, voltage ramps from −80 or −100 mV to +80 or +100 mV were delivered for 350 ms, or voltage-pulses from −100 mV to +100 mV were delivered for 400 ms to whole cells. When mANO1 was activated by 300 nM intracellular Ca^2+, voltage-pulses of 2500 ms were delivered. […]

mANO1 [3] = target: T1, mANO1 (Mus musculus, UniProt Q8BHY3, S527P); test: Ca2+ activation of macroscopic currents in inside-out patches from ANO1/ETAR-HEK cells; format: biochemical; set-up: expressed in transfected cells; conditions: for EC50: inside-out patches
T1 sequence (Q8BHY3 1-960 S527P): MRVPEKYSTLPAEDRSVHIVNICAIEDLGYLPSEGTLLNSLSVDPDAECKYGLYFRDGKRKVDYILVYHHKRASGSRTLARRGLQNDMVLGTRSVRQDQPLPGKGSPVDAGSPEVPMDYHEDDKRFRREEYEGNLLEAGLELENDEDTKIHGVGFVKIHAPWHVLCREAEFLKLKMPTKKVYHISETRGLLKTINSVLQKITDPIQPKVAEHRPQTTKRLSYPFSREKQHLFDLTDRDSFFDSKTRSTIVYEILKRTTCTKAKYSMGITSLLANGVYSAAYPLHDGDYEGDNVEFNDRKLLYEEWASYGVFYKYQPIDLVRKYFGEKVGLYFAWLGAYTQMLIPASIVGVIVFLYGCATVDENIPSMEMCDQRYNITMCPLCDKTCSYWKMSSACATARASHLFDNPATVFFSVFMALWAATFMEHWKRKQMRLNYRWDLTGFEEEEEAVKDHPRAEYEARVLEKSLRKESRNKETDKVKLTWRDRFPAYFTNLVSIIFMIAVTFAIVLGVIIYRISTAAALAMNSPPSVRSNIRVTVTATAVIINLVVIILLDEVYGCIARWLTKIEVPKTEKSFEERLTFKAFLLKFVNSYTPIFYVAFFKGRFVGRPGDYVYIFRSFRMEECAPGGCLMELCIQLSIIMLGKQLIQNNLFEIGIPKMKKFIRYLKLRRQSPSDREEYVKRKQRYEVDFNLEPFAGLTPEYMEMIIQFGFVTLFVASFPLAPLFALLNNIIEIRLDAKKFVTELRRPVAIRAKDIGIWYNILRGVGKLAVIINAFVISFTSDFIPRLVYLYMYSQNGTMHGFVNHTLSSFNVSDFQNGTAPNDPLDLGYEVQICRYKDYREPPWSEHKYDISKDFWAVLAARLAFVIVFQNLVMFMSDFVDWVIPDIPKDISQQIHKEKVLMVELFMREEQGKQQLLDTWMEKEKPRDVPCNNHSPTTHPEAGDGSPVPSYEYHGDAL
Experimental: A. Macroscopic current responses to repeated applications of Ca^2+ in various concentrations to the bath of inside-out patches isolated from mANO1-ETAR/HEK cells at holding potentials of −60 or +60 mV. Pipette and bath solution contained 140 mM NMDG-Cl.
B. Dose-response relationship of mANO1 activation by Ca^2+. Current responses were normalized versus those observed at 10 μM (−60 mV, n=8) or 3 μM Ca^2+ (+60 mV, n=8). Data points were fitted to the Hill's equation. (Error bars=Mean±S.E.M)
as §1
Ca^2+ in various concentrations applied to the bath (intracellular side) evoked macroscopic […] currents in a dose-dependent manner (Ehold=−60 mV) (FIG. 7A). […] The threshold concentration of Ca^2+ reached about 0.3 μM at −60 mV holding potential (FIG. 7B). Remarkably, ANO1 activation by Ca^2+ was voltage-dependent, which is also characteristic of endogenous CaCCs (Nilius, B. et al., Cell Calcium 22, 53-63 (1997), Kuruma, A. & Hartzell, H. C., J Gen Physiol 115, 59-80 (2000), Evans, M. G. & Marty, A., J Physiol 378, 437-60 (1986)). At a depolarized membrane potential (+60 mV), ANO1 was more sensitive to Ca^2+ and the concentration-response curve shifted to the left, resulting in an EC50 of 0.4 μM (FIG. 7B). Hill's coefficients of the concentration-response curves were 2.0 and 2.4 at −60 and +60 mV, respectively.

Compound: CNc1ccc2oc(C[C@H]3O[C@@]4(CC[C@H]3C)O[C@H]([C@H](C)C(=O)c3ccc[nH]3)[C@H](C)C[C@H]4C)nc2c1C(=O)O [A23187]
- membrane potential change detected by fluorescent intensity (mANO1 [1]): evoked membrane potential change

Compound: NCCOB(c1ccccc1)c1ccccc1 [2APB]
- block of ATP induced-membrane potential change (mANO1 [1]; pretreatment of 2APB, ANO1-stably expressing HEK cells): blocked

Compound: endothelin-1 (CSCSSLMDKECVYFCHLDIIW) [powerful vasoconstrictor; ligand of endothelin receptor subtype A (ETAR)]
- endothelin-1 evoked inward currents (mANO1 [2]; 50 nM endothelin-1, mANO1-ETAR/HEK cells, whole cell, membrane potential −60 mV): evoked robust inward currents
- second responses relative to first responses (tachyphylaxis) (mANO1 [2]; 50 nM endothelin-1 applied twice with a 5 min interval, ANO1/ETAR-HEK cells, n=12, no blocker): 87.1±11.4%
- endothelin-1 evoked Cl− currents (hANO1): evoked large Cl^− currents

Compound: Nc1ncnc2c1ncn2[C@@H]1O[C@H](COP(=O)(O)OP(=O)(O)OP(=O)(O)O)[C@@H](O)[C@H]1O [ATP]
- inward currents activated by ATP (mANO1 [2]; ATP 100 μM, mANO1 co-transfected with P2Y2R in HEK 293T cells, Ehold −60 mV): Large inward currents
- membrane potential change detected by fluorescent intensity (mANO1 [1]): evoked robust change in membrane potentials

Compound: [Ca+2] [Ca^2+]
- Hill's coefficient of concentration-response curve (mANO1 [3]; +60 mV): 2.4
- EC50 (mANO1 [3]; depolarized membrane potential +60 mV, read-out: EC50 for ANO1 activation): 400 nM
- EC50 (mANO1 [3]; holding potential −60 mV, read-out: half-maximal concentration (EC50) for ANO1 activation): 2600 nM
- Hill's coefficient of concentration-response curve (mANO1 [3]; −60 mV): 2.0
- threshold concentration for ANO1 activation (mANO1 [3]; −60 mV holding potential): about 0.3 μM
